Article PMC6013495, “Development of a Novel Backbone Cyclic Peptide Inhibitor of the Innate Immune TLR/IL1R Signaling Protein MyD88” (Scientific Reports, 2018)
Each block holds one molecule with its values, some of them ahead of it. Numbered stars: 1 amine (or outer) side, 2 acyl side, 3 side chain; on linkers, the order of the positions; unused ones are H or OH. Bridge positions count the residues as written; N and C are the ends. Square brackets hold non-standard residues; d marks the D form. Ends that are not written are not given here. Peptide text beside a SMILES is read from it. N(6-aminohexyl)Gly = O=C(CN(CCCCCCN[*:3])[*:1])[*:2]; CO = O=C([*:1])[*:2]; Nlys = NCCCCNCC(=O)O

Tests used:
[1] = Peptide stability in rat plasma; type: in vitro ADME; settings: fresh plasma of male Wistar rats, 37 °C, HPLC-MS, triplicate; for stability in plasma: 10 µg/ml, up to 240 min
Procedure: (§1) The linear peptide and c(MyD 4-4) (10 µg/ml) were mixed with fresh plasma from male Wistar rats (Harlan, Israel) and incubated at 37 °C for 240 min. Triplicate samples were taken at time 0 and after 5, 30, 60, 120, 180 and 240 min. Rat brush border membrane vesicles (BBMV) were prepared by Ca^2+ precipitation from the combined duodenum, jejunum, and upper ileum of male rats as described[41],[42]. Briefly, intestines were washed with ice cold saline and separated from mucus. The intestinal mucosa was separated from the luminal surface and placed immediately into buffer containing […] KCl and 10 mM Tris–HCl (pH 7.5, 4 °C). The samples were then homogenated (Polytron PT 1200, Kinematica AG, Switzerland) and 10 mM CaCl2 was added. The homogenate was placed on a shaker for 30 min at 4 °C and then centrifuged 10,000 g for 10 min. The supernatant was separated and centrifuged at 48,000 g for 30 min and an additional two purification steps were undertaken by suspending the pellet in 300 mM mannitol and 10 mM Hepes/Tris (pH 7.5) and centrifuging at 24,000 g/h. The quality of the BBMV purification was tested using the brush border membrane enzyme markers gamma-glutamyl transpeptidase (GGT), leucine amino peptidase (LAP) and alkaline phosphatase (Sigma-Aldrich, St Louis, MO). Peptides were mixed with purified BBMVs in MES buffer (2-(N-morpholino)ethanesulfonic acid, 50 mM pH 7.4) and incubated at 37 °C for 120 min. Triplicate samples were taken at time 0 and after 15, 30, 45, 60, 90, and 120 min.
To determine the concentration of the compounds, experimental samples were diluted 1:1 with ice-cold acetonitrile and centrifuged (11000 RPM, 10 min). The supernatant was separated and evaporated (Vacuum Evaporation System, Labconco, Kansas City, MO). Samples were reconstituted with acetonitrile: water 70:30 and then centrifuged (11000 RPM, 10 min). The amount of the compounds was determined using high performance liquid chromatography mass spectrometry (HPLC-MS) Waters 2695 Separation Module, equipped with Micromass ZQ detector. The resulting solution (100 μl) was injected into the HPLC system. […]

[2] = Peptide stability in brush border membrane vesicles (BBMVs); type: in vitro ADME; settings: rat intestinal BBMVs in MES buffer 50 mM pH 7.4, 37 °C, HPLC-MS, triplicate
Procedure: as §1, with “The quality of the BBMV purification was tested using the brush border membrane enzyme markers gamma-glutamyl transpeptidase (GGT), leucine amino peptidase (LAP) and alkaline phosphatase (Sigma-Aldrich, St Louis, MO). Peptides were mixed with purified BBMVs in MES buffer (2-(N-morpholino)ethanesulfonic acid, 50 mM pH 7.4) and incubated at 37 °C for 120 min. Triplicate samples were taken at time 0 and after 15, 30, 45, 60, 90, and 120 min.” left out
To determine the concentration of the compounds, experimental samples were diluted 1:1 with ice-cold acetonitrile and centrifuged (11000 RPM, 10 min). […] The amount of the compounds was determined using high performance liquid chromatography mass spectrometry (HPLC-MS) Waters 2695 Separation Module, equipped with Micromass ZQ detector. […]

THP-1 macrophages = type: cell-based, human
Description: MyD88 function depends on dimerization through the TIR domain[37]. The RDVLPGT peptide corresponds to the region between the βB strand and the αB helix[18] […] We screened a library of backbone cyclized peptides to identify a metabolically stable derivative of the BB loop peptide that retains the binding and functional properties of the parent peptide. The library was designed using two non-natural building blocks as previously reported. The method, called cycloscan, is based on the concept of screening focused backbone cyclic libraries with spatial diversity that maintain the original side chains of the active region in the protein (RDVLPGT), Backbone cyclization combines N-alkylation with cyclization. In the case of the MyD88 BB-loop decoy peptide RDVLPGT, the tertiary amide bond preceding proline served as one of the anchor sites and was therefore replaced by an N-Alkylated glycine building unit (AGBU) to allow backbone cyclization to the second AGBU at the N-terminus (Fig. 1). Tryptophan was added to the N-terminal AGBU for quantification purposes (Fig. 1). Following the above procedure 16 backbone cyclic peptides were prepared with various ring size and position of the urea bridge in the ring (Table S1). To screen the library, human THP-1 macrophages were pre-treated with the cyclic peptides and then stimulated with Pam3CSK4, a synthetic TLR2/1 lipopeptide agonist.

[3] = system: THP-1 cells, TLR2 ligand Pam3CSK4; assay: hTNFα production by THP-1 macrophages stimulated with Pam3CSK4 (TLR2); type: cell-based, human; settings: THP-1, inhibitors 3 hr before Pam3CSK4, 24 h, ELISA
Procedure: MyD88 function depends on dimerization through the TIR domain[37]. The RDVLPGT peptide corresponds to the region between the βB strand and the αB helix[18] […] We screened a library of backbone cyclized peptides to identify a metabolically stable derivative of the BB loop peptide that retains the binding and functional properties of the parent peptide. The library was designed using two non-natural building blocks as previously reported. […] Tryptophan was added to the N-terminal AGBU for quantification purposes (Fig. 1). […]
Figure 3 c(MyD 4-4) blocks TLR-mediated macrophage activation. (A) THP-1 cells were treated with inhibitors for 3 hr prior to activation with the TLR2 ligand Pam3CSK4 200 pg/ml for 24 h. hTNFα levels were determined by ELISA. […] (B,C) Luminescence levels from the NFκB-luc murine RAW264.7 cells. […] NFκB-luc RAW264.7 cells were treated with inhibitors for 24 hr and then cells were stimulated with Pam3CSK4 (10 ng/ml) (C) or LPS (50 ng/ml) (D) for 4 hr and luminescence levels were determined. […] Human (h) TNFα levels were determined by ELISA at 24 hr. (F,G) NFκB-luc RAW264.7 cells were treated with the indicated compounds for 24 hr and then stimulated with Pam3CSK4 (F) or LPS (G) for 4 hr after which luminescence was determined. […]
(§2) Cytokines were determined using human/mouse OptEIA sets (BD Biosciences, CA, USA) according to the manufacturer’s instructions.

RAW264.7 NFκB-luc cells = assay: Viability of NFκB-luc RAW264.7 cells; type: cell-based, mouse; settings: 24 hr treatment
[4] = system: THP-1 cells, TLR4 ligand LPS; assay: hTNFα production by THP-1 macrophages stimulated with LPS (TLR4); type: cell-based, human; settings: THP-1, compound 3 hr before LPS, 24 hr, ELISA
Procedure: Figure 3 c(MyD 4-4) blocks TLR-mediated macrophage activation. (A) THP-1 cells were treated with inhibitors for 3 hr prior to activation with the TLR2 ligand Pam3CSK4 200 pg/ml for 24 h. hTNFα levels were determined by ELISA. One representative experiment of three independent experiments is shown. Asterisks represent the significance between treated cells and untreated Pam3CSK4-stimulated control. Asterisks above a cross bar represent the comparison between treatment with c(MyD 4-4) and treatment with MyDI. (B,C) Luminescence levels from the NFκB-luc murine RAW264.7 cells. The different conditions were set according to preliminary assays of each cell line. NFκB-luc RAW264.7 cells were treated with inhibitors for 24 hr and then cells were stimulated with Pam3CSK4 (10 ng/ml) (C) or LPS (50 ng/ml) (D) for 4 hr and luminescence levels were determined. One representative experiment of three independent experiments is shown. […] Human (h) TNFα levels were determined by ELISA at 24 hr. (F,G) NFκB-luc RAW264.7 cells were treated with the indicated compounds for 24 hr and then stimulated with Pam3CSK4 (F) or LPS (G) for 4 hr after which luminescence was determined. […]
as §2

[5] = biological target: T1, recombinant fusion protein SUMO-MyD88-TIR (human MyD88 TIR domain, aa 150-296, fused to SUMO) (human, UniProt Q99836 150-296); assay: ELISA; competitive binding: SUMO-MyD88-TIR (8 µg/ml) attached to polystyrene plates at 4 °C overnight, blocked with 1% BSA in PBS; 125 µM Biotin-MyDI together with 10, 1, 0.1 or 0 µM competitor for 30 min; Streptavidin-HRP, absorbance at 450 nm; settings: both partners purified
T1 construct: MyD88, human, TIR domain residues 150-296; Cloned with BamH/XhoI into the pETM-11 SUMO3GFP fusion vector; also called recombinant MyD88 TIR domain; Recombinant MyD88 TIR protein; source: E. coli BL21 C43 (DE3), purified (HIS-select Nickel Magnetic agarose beads, eluted with 300 mM imidazole)

[6] = biological target: T1, recombinant fusion protein …; assay: ELISA; SUMO fusion protein attached to ELISA plate wells; biotinylated peptide added at several concentrations; settings: both partners purified

T1 sequence (Q99836 150-296): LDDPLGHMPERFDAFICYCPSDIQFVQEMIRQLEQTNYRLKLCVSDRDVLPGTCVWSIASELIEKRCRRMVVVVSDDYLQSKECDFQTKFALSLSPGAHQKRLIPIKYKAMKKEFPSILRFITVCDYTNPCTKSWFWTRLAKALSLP

stability in plasma [1]: rapidly degraded
stability with BBMVs ([2]; up to 120 min): rapidly degraded
Molecule: RDVLPGT-NH2 [MyDI]

Molecule: CC(C)C[C@@H]1NC(=O)[C@H](C(C)C)NC(=O)[C@H](CC(=O)O)NC(=O)[C@H](CCCNC(=N)N)NC(=O)CN(C(=O)[C@@H](N)Cc2c[nH]c3ccccc23)CCCCNC(=O)NCCCCN(CC(=O)NCC(=O)N[C@H](C(N)=O)[C@@H](C)O)C1=O [c(MyD 4-4)] (H-W[Nlys]RDVL[Nlys]GT-NH2; linker 2-7 via CO)
stability in plasma [1]: highly stable
remaining at 4 h, 10 µg/ml ([1]; rat, 240 minutes, mean, read-out: starting material detected after incubation in plasma): > 90%
cytotoxicity (THP-1 macrophages): without causing cytotoxicity
remaining at 2 h ([2]; male, intestinal brush border membrane vesicles (BBMVs), 2 h, mean, read-out: peptide recovered at end of incubation with BBMVs): ~80%

Molecule: NC(=O)[C@H]1CCS[C@@H]2C[C@]3(CCCN3C(=O)Cc3ccc(NC(=O)COc4ccc(Cl)cc4Cl)cc3)C(=O)N12 [ST2825]
inhibition of hTNFα production [3]: did not block
cytotoxicity (RAW264.7 NFκB-luc cells): highly cytotoxic
inhibition of hTNFα production [4]: did not block

Molecule: CC(C)C[C@@H]1NC(=O)[C@H](C(C)C)NC(=O)[C@H](CC(=O)O)NC(=O)[C@H](CCCNC(=N)N)NC(=O)CN(C(=O)[C@@H](N)Cc2c[nH]c3ccccc23)CCCCCCNC(=O)NCCCCCCN(CC(=O)NCC(=O)N[C@H](C(N)=O)[C@@H](C)O)C1=O [c(MyD6x6)] (H-W[N(6-aminohexyl)Gly]RDVL[N(6-aminohexyl)Gly]GT-NH2; linker 2-7 via CO)
cytotoxicity (THP-1 macrophages): without causing cytotoxicity

binding result [5]: binds
B1: MyD88 inhibitor peptide (MyDI, RDVLPGT), unlabeled linear BB loop peptide (peptide)
peptide: RDVLPGT-NH2
notes: MyD88 BB loop heptamer; also called non-biotinylated linear peptide; MyD88 BB-loop decoy peptide; source: synthetic peptide (Fmoc chemistry on Rink amide MBHA resin, HPLC purified)

binding result [6]: binds
B2: Biotinylated linear BB loop peptide RDVLPGT (Biotin-MyDI) (peptide)
peptide: RDVLPGT
modifications: also: biotinylated, position not given here
notes: MyD88 BB loop heptamer; also called Biotinylated RDVLPGT; source: bought: Bio Basic Inc
